Results on two molecules are retold here after patent US5298621A, “Oligopeptide derivatives of ipoxantine endowed with immunomodulating activity and pharmaceutical compositions containing same” (Sigma-Tau Industrie Farmaceutiche Riunite S.p.A., priority 1990, dated 1994).

Test [1] concerns rat granulocytes. The test is described as follows: "In vitro" chemotactic activity of rat granulocytes (modified Boyden chamber). The class given is cell-based. The following applies: for "in vitro" chemotaxis (μ ± S.E.): 10 mcg/mL, granulocytes of untreated rats; for chemotactic activity of rat granulocytes versus the control (in words): in vitro and in vitro-ex vivo. On the procedure:
Test 3 Assessment of the "in vitro" and "in vitro-ex vivo" effect of ST 657 and ST 789 on the chemotactic activity of rat granulocytes.
Male Fisher-344 rats aged about 3 months were used (6-8 animals for each experimental group).
The compounds were tested "in vitro", 10 mcg/mL, and "in vitro-ex vivo" following administration of 25 mg/kg/day from day -5 to day -1 (taking of blood sample at day 0).
The experimental procedure is described by Cates, L. K. et al (1987), Modified Boyden chamber method of measuring polymorphonuclear leukocyte chemotaxis, Leukocyte Chemotaxis, Raven Press, N.Y. 67.
Blood samples were collected from animals sacrificed by decapitation. Following passage through heparinized gauze, blood was diluted (1:1) with dextran (1.5% in saline) and allowed to sediment for 90 minutes.
The concentration of the granulocytes, collected from blood via known techniques, was adjusted to 2×10^6 cells/mL in Hank's medium. They were then seeded on 3 μMillipore filters which were placed in migration chambers.
These chambers were prepared using Hank's medium to evaluate the spontaneous migration, and casein (2 mL of solution, at the concentration 5 mg/mL) to evaluate the induced migration.
In performing the "in vitro" test, granulocytes of untreated animals were used, to which the compounds had been added before seeding thereof on the Millipore filters preparation of migration chambers.
Following incubation of the samples at 37° C. and 5% CO2 for 60 minutes, the filters were stained and mounted on microscope slides.
Microscopic examination of samples versus control allows the distance (in μm) run by the two most forward granulocytes in the framed field to be determined. Granulocyte migration is determined by calculating the mean value of 10 readings performed as a whole on two filters per sample.
The results obtained were statistically processed with Student's "t" test (Biostatistics in Pharmacology, loc, cit.).

Test [2] has as its system Salmonella typhimurium. The test is described as follows: Protective effect in immunodepressed mice experimentally infected with Salmonella typhimurium. The class given is in vivo. The following applies: Salmonella typhimurium 1 × 10^3 cells. From the text: (§1) Test 2 Assessment of the protective effect induced by ST 657, ST 733, ST 754 and ST 789 on immunodepressed mice experimentally infected.
(§2) Male CD1 mice (Charles River, Italy) of different ages were used: mice aged 6 and 12 weeks infected with Klebsiella and mice aged 7 weeks infected with Salmonella (10 mice per group).
(§3) Systemic infection in mice was induced via i.p. inoculum of either a pathogenic strain of Klebsiella (K. pneumoniae) or a pathogenic strain of Salmonella (S. typhimurium), which were able to provoke death of the animals within 5 and 20 days, respectively, following the challenge.
(§4) Infective doses prepared from overnight broth cultures corresponding to 1.5×10^5 and 3.5×10^5 live cells of K. pneumoniae, and 1×10^3 live cells of S. typhimurium were suspended in 0.2 mL of 5% gastric mucine and then injected.
(§5) The immunosuppressor (cyclophosphamide) was administered i.p. in 0.2 mL of sterile saline, 100 mg/kg, 5 days before the infective challenge.
(§6) The compounds were administered i.p., 0.25 and 25 mg/kg/day, from day -5 to day -1 (challenge at day 0).
(§7) The results obtained are expressed as % mortality and statistically processed with the Fisher's exact test (Biostatistics in Pharmacology, vol. II, Pergamon Press).

Test [3] deals with Sarcoma S 180 cells. Briefly: Protective effect in S 180 Sarcoma-bearing mice. The class given is in vivo. The following applies: for Dead/total / MST (mean survival time calculated by the median and the first interquartile range): 0.25 mg/kg i.p. from day +1 to day +10; for Weight control (x ± S.E.): 0.25 mg/kg/day i.p. day +1 to +10, in g (unit assumed); for number of surviving animals at the indicated day / animals survived (footnote, end of observation): group of 9, 0.25 mg/kg/day; for animals survived (footnote, end of observation): after day +26. Here is the method:
Test 4 Assessement of the protective effect of ST 657 and ST 789 in tumor-bearing mice.
Male DBA/2 mice and male CD1 mice (Charles River), both aged 6 weeks, were used.
CD1 mice were inoculated i.p. with 1×10^3 Sarcoma S 180 cells (ATCC, loc. cit.) in 0.1 mL of Hank's medium.
The compounds were adminstered i.p. in sterile saline (0.25 mg/kg/day) from day +1 to day +10 (tumor transplantation at day 0).
Also the body weight of the animals was monitored, from day 0 to day +16 for the L 1210 leukemia-bearing mice, and from day 0 to day +21 for the S 180 sarcoma-bearing mice.
Monitoring of body weight was conducted in order to evaluate the evolution of the neoplastic process. Compounds activity was assessed as Mean Survival Time (MST).

The test system of test [4] is K. pneumoniae. The test is described as follows: Protective effect in immunodepressed mice experimentally infected with K. pneumoniae. The class given is in vivo. The following applies: for % Mortality: cyclophosphamide immunodepressed.
From the text: as §1, §2, §3, §4, §5, §6, §7

Setting [5] is: 0.25 mg/kg/day i.p. day -5 to -1.
The mark [6] stands for this setting: K. pneumoniae 1.5 × 10^5 cells, animals aged 6 weeks, 0.25 mg/kg/day i.p. day -5 to -1.
The mark [7] stands for this setting: K. pneumoniae 1.5 × 10^5 cells, animals aged 6 weeks, 25 mg/kg/day i.p. day -5 to -1.
Setting [8] is: K. pneumoniae 3.5 × 10^5 cells, animals aged 12 weeks, 0.25 mg/kg/day i.p. day -5 to -1.
The mark [9] stands for this setting: K. pneumoniae 3.5 × 10^5 cells, animals aged 12 weeks, 25 mg/kg/day i.p. day -5 to -1.

Take `N=C(N)NCCC[C@H](NC(=O)OCCCCCn1cnc2c(=O)[nH]cnc21)C(=O)O` [ST 789, N-5-(ipoxantin-9-yl) pentyloxycarbonylarginine, reference compound]: the “"in vitro" chemotaxis (μ ± S.E.)” value in test [1] worked out at 38.8 ± 4.47 μ. Further, the “chemotactic activity of rat granulocytes versus the control (in words)” value in test [1] was “totally inactive”. Besides, the “% Mortality” value in test [2] (setting [5]) came out at 10%; in test [2] (25 mg/kg/day i.p. day -5 to -1) it was 20%; in test [4] (setting [6]), 50%; in test [4] (setting [7]), 40%; in test [4] (setting [8]) it was 50%; in test [4] (setting [9]) it was 60%. The Dead/total in test [3] was 8/9. For the same molecule, the “MST (mean survival time calculated by the median and the first interquartile range)” value in test [3] was 22.0 (20.5-≥25.5). The “Weight control (x ± S.E.)” value in test [3] (Day 0) is 21.8 ± 0.5; in test [3] (Day 2), 22.4 ± 0.5; in test [3] (Day 4), 24.3 ± 0.6; in test [3] (Day 7), 25.8 ± 0.7; in test [3] (Day 9), 26.9 ± 0.8; in test [3] (Day 11), 29.2 ± 1.2. For the same molecule, the “Weight control (x ± S.E.)” value in test [3] (Day 14) is 33.1 ± 2.0; in test [3] (Day 16) it was 34.0 ± 2.0; in test [3] (Day 21), 32.8 ± 2.2. In test [3] (Day 21), the “number of surviving animals at the indicated day” value is reported as 5. For the same molecule, the “animals survived (footnote, end of observation)” value in test [3] is listed as “One”.
Take “N-5-(ipoxantin-9-yl) pentyloxycarbonyl glycyl L-aspartate disodium salt [ST 657]”: the “"in vitro" chemotaxis (μ ± S.E.)” value in test [1] was found to be 54.8 ± 3.05 μ. For the same molecule, the “chemotactic activity of rat granulocytes versus the control (in words)” value in test [1] is “effective in enhancing the chemotactic activity”. Further, the “% Mortality” value in test [2] (setting [5]) is 0%; in test [2] (25 mg/kg/day i.p. day -5 to -1), 0%; in test [4] (setting [6]), 50%; in test [4] (setting [7]) it was 20%; in test [4] (setting [8]), 33%; in test [4] (setting [9]) it was 60%. Also, in test [3], the Dead/total is recorded as 5/9. Besides, the “MST (mean survival time calculated by the median and the first interquartile range)” value in test [3] is recorded as 26.0 (20.5-≥47.0). Further, the “Weight control (x ± S.E.)” value in test [3] (Day 0) is 22.2 ± 0.3; in test [3] (Day 2), 22.0 ± 0.6; in test [3] (Day 4) it was 23.9 ± 0.4; in test [3] (Day 7), 26.1 ± 0.4; in test [3] (Day 9), 27.3 ± 0.5; in test [3] (Day 11) it was 28.6 ± 0.6. Besides, the figures for the “Weight control (x ± S.E.)” value in test [3] (Day 14), in test [3] (Day 16) and in test [3] (Day 21) were 31.2 ± 1.0, 31.4 ± 1.1 and 32.9 ± 1.0, respectively. The “number of surviving animals at the indicated day” value in test [3] (Day 21) stood at 6. Besides, in test [3], the “animals survived (footnote, end of observation)” value was 4. Moreover, the “MST / protection in tumor-bearing mice (in words)” value in test [3] (comparison with ST 789, S 180 and L 1210 tables) is listed as “higher MST and/or a better protection than ST 789”. Also, in test [4] (comparison with ST 789, K. pneumoniae and S. typhimurium tables), the “protective effect in immunodepressed infected mice (in words)” value was “protective effect more potent than ST 789”.
